What all share (assay type): cell-based
Data set [1] concerns the target T1, Nav 1.7 (Homo sapiens (Human), UniProt Q15858). Description: Nav 1.7 in vitro PX assay, PatchXpress whole cell voltage clamp. The conditions noted are these: HEK 293 cells stably transfected with human Nav1.7; for IC50: partially inactivated state (20 to 50% inactivation); for inhibition at 4.9 µM: HEK293, values marked *, read-out: Nav 1.7 PX percent inhibition at 4.9 μM. Put shortly:
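HEK293 cells stably expressing human Nav1.7, whole-cell voltage clamp at a holding potential giving 20–50% inactivation; currents elicited by 20 msec pulses to −10 mV at 0.1 Hz.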

In data set [2] the target is T1, Nav 1.7. The data set is described as follows: Nav 1.7 in vitro assay, IonWorks Quattro (IWQ) population patch-clamp. The conditions noted are these: HEK 293 cells stably transfected with Nav 1.7; 26th pulse to -20 mV. (In general: Patch clamp records ionic current or voltage across a cell membrane.)
A further data set has as its target Nav 1.5 (Homo sapiens (Human), UniProt Q14524). Description: Nav 1.5 in vitro assay, IonWorks Quattro (IWQ) population patch-clamp. The following applies: HEK 293 cells stably transfected with Nav 1.5; 26th pulse to -20 mV.

26 molecules from patent publication US9346798B2, “Dihydrobenzoxazine and tetrahydroquinoxaline sodium channel inhibitors” (AMGEN INC., priority 2012, dated 2016) can be followed below.

As usually defined, the IC50 is the midpoint of a concentration-inhibition curve. High values mean a need for much substance, low ones inhibition by little substance. A word on the inhibition: it is the share of the control response that was lost under treatment.

T1 sequence (Q15858 whole entry): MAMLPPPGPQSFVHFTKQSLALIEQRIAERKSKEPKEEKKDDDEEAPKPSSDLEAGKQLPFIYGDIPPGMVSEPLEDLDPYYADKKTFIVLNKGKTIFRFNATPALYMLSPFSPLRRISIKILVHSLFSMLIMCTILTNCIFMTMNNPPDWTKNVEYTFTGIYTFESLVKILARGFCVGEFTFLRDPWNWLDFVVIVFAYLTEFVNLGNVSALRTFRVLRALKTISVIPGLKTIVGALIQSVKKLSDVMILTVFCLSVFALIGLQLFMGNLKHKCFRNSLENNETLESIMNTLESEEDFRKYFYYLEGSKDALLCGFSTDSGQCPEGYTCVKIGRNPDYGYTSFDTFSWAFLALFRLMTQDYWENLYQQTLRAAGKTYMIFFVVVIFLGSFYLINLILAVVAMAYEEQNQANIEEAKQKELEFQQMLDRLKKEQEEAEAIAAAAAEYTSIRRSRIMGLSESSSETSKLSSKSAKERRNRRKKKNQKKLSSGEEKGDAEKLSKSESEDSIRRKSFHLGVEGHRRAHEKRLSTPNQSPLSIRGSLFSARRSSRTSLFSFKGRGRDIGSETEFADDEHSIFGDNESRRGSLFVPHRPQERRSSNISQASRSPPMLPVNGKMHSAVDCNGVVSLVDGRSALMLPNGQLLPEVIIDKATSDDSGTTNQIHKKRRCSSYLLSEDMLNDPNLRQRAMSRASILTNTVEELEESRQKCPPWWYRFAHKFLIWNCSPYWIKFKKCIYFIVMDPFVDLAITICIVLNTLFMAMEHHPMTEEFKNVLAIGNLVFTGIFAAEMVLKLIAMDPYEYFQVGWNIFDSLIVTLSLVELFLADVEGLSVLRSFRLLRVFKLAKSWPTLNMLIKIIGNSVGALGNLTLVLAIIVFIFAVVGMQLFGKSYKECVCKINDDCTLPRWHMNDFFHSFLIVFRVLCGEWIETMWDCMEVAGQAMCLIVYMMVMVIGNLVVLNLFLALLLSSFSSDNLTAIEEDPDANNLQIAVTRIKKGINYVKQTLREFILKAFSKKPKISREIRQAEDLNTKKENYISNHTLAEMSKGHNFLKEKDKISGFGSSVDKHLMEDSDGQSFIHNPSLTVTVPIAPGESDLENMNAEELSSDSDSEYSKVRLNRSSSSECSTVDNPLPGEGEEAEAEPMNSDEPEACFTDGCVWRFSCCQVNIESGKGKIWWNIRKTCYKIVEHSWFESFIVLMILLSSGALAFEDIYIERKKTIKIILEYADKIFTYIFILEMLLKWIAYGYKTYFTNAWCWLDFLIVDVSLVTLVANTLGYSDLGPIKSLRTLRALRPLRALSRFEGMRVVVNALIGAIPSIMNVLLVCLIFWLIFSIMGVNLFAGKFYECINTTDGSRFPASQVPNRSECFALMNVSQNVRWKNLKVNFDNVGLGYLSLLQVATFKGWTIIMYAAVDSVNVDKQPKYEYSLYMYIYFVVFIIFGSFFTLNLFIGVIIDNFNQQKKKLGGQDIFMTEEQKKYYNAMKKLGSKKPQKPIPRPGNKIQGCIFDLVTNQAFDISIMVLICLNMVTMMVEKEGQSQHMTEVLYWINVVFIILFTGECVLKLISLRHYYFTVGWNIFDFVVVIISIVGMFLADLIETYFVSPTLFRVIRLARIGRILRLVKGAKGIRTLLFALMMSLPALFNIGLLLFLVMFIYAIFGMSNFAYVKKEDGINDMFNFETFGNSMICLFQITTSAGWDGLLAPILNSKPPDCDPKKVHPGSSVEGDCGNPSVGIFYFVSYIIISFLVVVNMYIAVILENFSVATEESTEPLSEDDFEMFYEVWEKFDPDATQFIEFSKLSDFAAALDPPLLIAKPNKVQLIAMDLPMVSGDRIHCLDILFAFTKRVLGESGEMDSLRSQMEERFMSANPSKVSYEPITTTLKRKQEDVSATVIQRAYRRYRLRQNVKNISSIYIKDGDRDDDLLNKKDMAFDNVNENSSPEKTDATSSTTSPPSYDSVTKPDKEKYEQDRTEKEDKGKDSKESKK
Sequence of Nav 1.5 (Q14524 whole entry): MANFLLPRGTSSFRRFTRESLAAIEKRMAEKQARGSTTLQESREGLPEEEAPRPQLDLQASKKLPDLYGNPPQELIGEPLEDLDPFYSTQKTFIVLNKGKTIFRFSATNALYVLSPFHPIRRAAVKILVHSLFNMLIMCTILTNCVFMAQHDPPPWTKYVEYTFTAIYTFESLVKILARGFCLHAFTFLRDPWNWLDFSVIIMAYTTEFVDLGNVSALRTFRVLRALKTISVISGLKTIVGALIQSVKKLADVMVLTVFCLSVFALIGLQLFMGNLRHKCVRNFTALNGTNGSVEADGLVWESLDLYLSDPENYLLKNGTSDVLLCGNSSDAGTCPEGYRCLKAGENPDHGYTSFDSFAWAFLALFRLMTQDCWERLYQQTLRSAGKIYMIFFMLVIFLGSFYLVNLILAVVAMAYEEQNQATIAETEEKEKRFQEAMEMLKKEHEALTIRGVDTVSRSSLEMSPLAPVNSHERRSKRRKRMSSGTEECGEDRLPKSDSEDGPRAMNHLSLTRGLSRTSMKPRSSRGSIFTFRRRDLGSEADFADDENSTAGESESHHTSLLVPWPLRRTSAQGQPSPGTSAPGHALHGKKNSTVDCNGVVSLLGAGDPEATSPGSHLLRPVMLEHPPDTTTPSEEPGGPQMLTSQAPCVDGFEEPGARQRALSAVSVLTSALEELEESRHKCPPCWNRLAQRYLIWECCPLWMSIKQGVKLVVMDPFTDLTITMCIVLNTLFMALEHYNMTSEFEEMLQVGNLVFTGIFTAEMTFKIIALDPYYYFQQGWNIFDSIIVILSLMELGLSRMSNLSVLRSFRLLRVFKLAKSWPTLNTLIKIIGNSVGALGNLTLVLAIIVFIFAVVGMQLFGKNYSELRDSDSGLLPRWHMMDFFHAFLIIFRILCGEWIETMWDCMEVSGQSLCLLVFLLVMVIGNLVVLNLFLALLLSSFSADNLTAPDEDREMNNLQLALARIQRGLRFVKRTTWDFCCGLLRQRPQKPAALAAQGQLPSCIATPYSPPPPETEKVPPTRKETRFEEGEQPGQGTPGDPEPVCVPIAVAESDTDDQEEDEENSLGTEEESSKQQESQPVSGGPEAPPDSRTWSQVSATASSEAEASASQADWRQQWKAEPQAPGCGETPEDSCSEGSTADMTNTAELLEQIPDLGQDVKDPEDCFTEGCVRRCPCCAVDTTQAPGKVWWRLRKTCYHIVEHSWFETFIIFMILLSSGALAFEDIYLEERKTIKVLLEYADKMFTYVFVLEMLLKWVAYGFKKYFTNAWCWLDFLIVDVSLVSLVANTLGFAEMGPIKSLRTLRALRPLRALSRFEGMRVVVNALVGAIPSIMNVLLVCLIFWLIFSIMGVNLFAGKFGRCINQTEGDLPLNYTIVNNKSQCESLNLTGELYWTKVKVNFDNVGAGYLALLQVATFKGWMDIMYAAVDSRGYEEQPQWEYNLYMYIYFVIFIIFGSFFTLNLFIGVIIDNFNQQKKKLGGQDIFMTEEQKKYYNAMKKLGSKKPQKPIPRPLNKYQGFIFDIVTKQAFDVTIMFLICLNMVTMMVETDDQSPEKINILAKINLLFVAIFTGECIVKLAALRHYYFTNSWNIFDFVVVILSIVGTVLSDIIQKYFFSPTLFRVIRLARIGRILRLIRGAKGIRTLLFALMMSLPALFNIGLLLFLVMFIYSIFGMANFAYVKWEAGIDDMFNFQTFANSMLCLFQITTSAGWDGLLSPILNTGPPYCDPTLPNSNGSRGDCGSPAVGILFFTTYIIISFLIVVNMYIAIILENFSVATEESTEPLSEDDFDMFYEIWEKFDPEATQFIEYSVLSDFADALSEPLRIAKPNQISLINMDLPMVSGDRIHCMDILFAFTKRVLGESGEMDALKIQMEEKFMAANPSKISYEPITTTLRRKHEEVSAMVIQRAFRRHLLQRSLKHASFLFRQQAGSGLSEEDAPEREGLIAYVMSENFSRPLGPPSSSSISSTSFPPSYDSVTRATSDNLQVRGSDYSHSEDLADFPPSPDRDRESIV

Turning to `N#Cc1ccc(OC(F)(F)F)cc1N1CCOc2cc(S(=O)(=O)Nc3nccs3)ccc21` [Example 128, 4-(2-Cyano-5-(trifluoromethoxy)phenyl)-N-(thiazol-2-yl)-3,4-dihydro-2H-benzo[b][1,4]oxazine-7-sulfonamide], the IC50 was 912 nM at Nav 1.7 [1], 69.5 nM against Nav 1.7 [2] and 3690 nM on Nav 1.5.
As for `O=S(=O)(Nc1nccs1)c1ccc2c(c1)OCCN2c1cccc2c1OC(F)(F)O2` [Example 129, 4-(2,2-Difluorobenzo[d][1,3]dioxol-4-yl)-N-(thiazol-2-yl)-3,4-dihydro-2H-benzo[b][1,4]oxazine-7-sulfonamide], the IC50 against Nav 1.7 [1] is 2900 nM; against Nav 1.7 [2] it was 263 nM; against Nav 1.5, over 10000 nM.
The matching figures for `O=S(=O)(Nc1nccs1)c1ccc2c(c1)OCCN2c1cncc(Cl)c1` [Example 130, 4-(5-Chloropyridin-3-yl)-N-(thiazol-2-yl)-3,4-dihydro-2H-benzo[b][1,4]oxazine-7-sulfonamide]: 5290 nM, 635 nM and 6200 nM.
The corresponding values for `COc1cncc(N2CCOc3cc(S(=O)(=O)Nc4nccs4)ccc32)c1` [Example 131, 4-(5-Methoxypyridin-3-yl)-N-(thiazol-2-yl)-3,4-dihydro-2H-benzo[b][1,4]oxazine-7-sulfonamide] are 23300 nM, 1310 nM and over 10000 nM.
Take `Cc1cncc(C)c1N1CCOc2cc(S(=O)(=O)Nc3nccs3)ccc21` [Example 133, 4-(3,5-Dimethylpyridin-4-yl)-N-(thiazol-2-yl)-3,4-dihydro-2H-benzo[b][1,4]oxazine-7-sulfonamide]: the inhibition at 4.9 µM at Nav 1.7 [1] turned out to be 20.2%. In addition, the IC50 against Nav 1.7 [2] was 1590 nM; against Nav 1.5 it was over 10000 nM.
In the case of `Cc1cc(N2CCOc3cc(S(=O)(=O)Nc4nccs4)ccc32)c(C)cn1` [Example 134, 4-(2,5-Dimethylpyridin-4-yl)-N-(thiazol-2-yl)-3,4-dihydro-2H-benzo[b][1,4]oxazine-7-sulfonamide], the IC50 on Nav 1.7 [1] is 17100 nM; against Nav 1.7 [2], 1340 nM; against Nav 1.5 it was over 10000 nM.
Consider `Cc1ccc(C#N)c(N2CCOc3cc(S(=O)(=O)Nc4nccs4)ccc32)n1` [Example 135, 4-(3-Cyano-6-methylpyridin-2-yl)-N-(thiazol-2-yl)-3,4-dihydro-2H-benzo[b][1,4]oxazine-7-sulfonamide], for which the inhibition at 4.9 µM on Nav 1.7 [1] is 22.6%. The IC50 was 2680 nM on Nav 1.7 [2] and over 10000 nM against Nav 1.5.
The matching figures for `O=S(=O)(Nc1nccs1)c1ccc2c(c1)OCCN2c1ncc(F)cc1F` [Example 136, 4-(3,5-Difluoropyridin-2-yl)-N-(thiazol-2-yl)-3,4-dihydro-2H-benzo[b][1,4]oxazine-7-sulfonamide]: 27.4%, 2980 nM and over 10000 nM.
Regarding `COc1cc(C)c(N2CCOc3cc(S(=O)(=O)Nc4nccs4)ccc32)cn1` [Example 137, 4-(6-Methoxy-4-methylpyridin-3-yl)-N-(thiazol-2-yl)-3,4-dihydro-2H-benzo[b][1,4]oxazine-7-sulfonamide], the IC50 on Nav 1.7 [1] was 21700 nM; at Nav 1.7 [2], 914 nM; at Nav 1.5 it was over 10000 nM.
The matching figures for `CCOc1ccc(N2CCOc3cc(S(=O)(=O)Nc4nccs4)ccc32)cn1` [Example 138, 4-(6-Ethoxypyridin-3-yl)-N-(thiazol-2-yl)-3,4-dihydro-2H-benzo[b][1,4]oxazine-7-sulfonamide]: 11500 nM, 860 nM and 3830 nM.
The corresponding values for `COc1ccc(OC)c(N2CCOc3cc(S(=O)(=O)Nc4nccs4)ccc32)c1` [Example 139, 4-(2,5-Dimethoxyphenyl)-N-(thiazol-2-yl)-3,4-dihydro-2H-benzo[b][1,4]oxazine-7-sulfonamide] are 415 nM, 69.5 nM and 7040 nM.
The matching figures for `Cc1cc(OC(F)(F)F)ccc1N1CCOc2cc(S(=O)(=O)Nc3nccs3)ccc21` [Example 140, 4-(2-Methyl-4-(trifluoromethoxy)phenyl)-N-(thiazol-2-yl)-3,4-dihydro-2H-benzo[b][1,4]oxazine-7-sulfonamide]: 1340 nM, 451 nM and 6600 nM.
As to `O=S(=O)(Nc1nccs1)c1ccc2c(c1)OCCN2c1ccc(-n2cccn2)cc1` [Example 141, 4-(4-(1H-pyrazol-1-yl)phenyl)-N-(thiazol-2-yl)-3,4-dihydro-2H-benzo[b][1,4]oxazine-7-sulfonamide], the results for the IC50 against Nav 1.7 [1], against Nav 1.7 [2] and at Nav 1.5 were 6420 nM, 671 nM and 2500 nM, respectively.
For the molecule `N#Cc1cccc(Cl)c1N1CCOc2cc(S(=O)(=O)Nc3nccs3)ccc21` [Example 142, 4-(2-Chloro-6-cyanophenyl)-N-(thiazol-2-yl)-3,4-dihydro-2H-benzo[b][1,4]oxazine-7-sulfonamide], the inhibition at 4.9 µM at Nav 1.7 [1] stood at 33.9%. The IC50 against Nav 1.7 [2] is 2210 nM; on Nav 1.5, over 10000 nM.
With `COc1cnc(N2CCOc3cc(S(=O)(=O)Nc4nccs4)ccc32)c(OC)n1` [Example 143, 4-(3,5-Dimethoxypyrazin-2-yl)-N-(thiazol-2-yl)-3,4-dihydro-2H-benzo[b][1,4]oxazine-7-sulfonamide], the IC50 at Nav 1.7 [1] is 9070 nM; at Nav 1.7 [2], 1010 nM; at Nav 1.5, over 10000 nM.
The matching figures for `COc1cnc(N2CCOc3cc(S(=O)(=O)Nc4nccs4)ccc32)c(OC)c1` [Example 144, 4-(3,5-Dimethoxypyridin-2-yl)-N-(thiazol-2-yl)-3,4-dihydro-2H-benzo[b][1,4]oxazine-7-sulfonamide]: 7670 nM, 894 nM and over 10000 nM.
The matching figures for `COc1ncc(C(F)(F)F)cc1N1CCOc2cc(S(=O)(=O)Nc3nccs3)ccc21` [Example 145, 4-(2-Methoxy-5-(trifluoromethyl)pyridin-3-yl)-N-(thiazol-2-yl)-3,4-dihydro-2H-benzo[b][1,4]oxazine-7-sulfonamide]: 11800 nM, 235 nM and 7380 nM.
Turning to `Cc1cc(OC(F)F)cnc1N1CCOc2cc(S(=O)(=O)Nc3nccs3)ccc21` [Example 146, 4-(5-(Difluoromethoxy)-3-methylpyridin-2-yl)-N-(thiazol-2-yl)-3,4-dihydro-2H-benzo[b][1,4]oxazine-7-sulfonamide], the figures for the IC50 at Nav 1.7 [1], at Nav 1.7 [2] and against Nav 1.5 were 4730 nM, 416 nM and 5220 nM, respectively.
The corresponding values for `O=S(=O)(Nc1nccs1)c1ccc2c(c1)OCCN2c1ccccc1-c1ccncc1` [Example 147, 4-(2-(Pyridin-4-yl)phenyl)-N-(thiazol-2-yl)-3,4-dihydro-2H-benzo[b][1,4]oxazine-7-sulfonamide] are 1990 nM, 107 nM and over 10000 nM.
The matching figures for `Cn1nccc1-c1ccccc1N1CCOc2cc(S(=O)(=O)Nc3nccs3)ccc21` [Example 148, 4-(2-(1-Methyl-1H-pyrazol-5-yl)phenyl)-N-(thiazol-2-yl)-3,4-dihydro-2H-benzo[b][1,4]oxazine-7-sulfonamide]: 782 nM, 66.5 nM and over 10000 nM.
Take `O=S(=O)(Nc1nccs1)c1ccc2c(c1)OCCN2c1ccccc1C1CCOCC1` [Example 149, 4-(2-(Tetrahydro-2H-Pyran-4-Yl)Phenyl)-N-(Thiazol-2-Yl)-3,4-Dihydro-2H-Benzo[B][1,4]Oxazine-7-Sulfonamide]: the IC50 against Nav 1.7 [1] is 2550 nM; on Nav 1.7 [2] it was 198 nM; at Nav 1.5, over 10000 nM.
The corresponding values for `COc1cc(F)ccc1N1CCOc2cc(S(=O)(=O)Nc3nccs3)ccc21` [Example 150, 4-(4-Fluoro-2-methoxyphenyl)-N-(thiazol-2-yl)-3,4-dihydro-2H-benzo[b][1,4]oxazine-7-sulfonamide] are 192 nM, 17 nM and 5580 nM.
On to `COc1ccc(F)cc1N1CCOc2cc(S(=O)(=O)Nc3nccs3)ccc21` [Example 151, 4-(5-Fluoro-2-methoxyphenyl)-N-(thiazol-2-yl)-3,4-dihydro-2H-benzo[b][1,4]oxazine-7-sulfonamide], for which the IC50 was 158 nM on Nav 1.7 [1], 13.5 nM against Nav 1.7 [2] and over 10000 nM on Nav 1.5.
In the case of `N#Cc1cc(C(F)(F)F)ccc1N1CCOc2cc(S(=O)(=O)Nc3cscn3)ccc21` [Example 152, 4-(2-cyano-4-(trifluoromethyl)phenyl)-N-(thiazol-4-yl)-3,4-dihydro-2H-benzo[b][1,4]oxazine-7-sulfonamide], the IC50 on Nav 1.7 [1] is 2780 nM; at Nav 1.7 [2], 1630 nM; at Nav 1.5 it was 9420 nM.
The matching figures for `O=S(=O)(Nc1nccs1)c1ccc2c(c1)OCCN2c1ccc(Cl)c(F)c1` [Example 155, 4-(4-Chloro-3-Fluorophenyl)-N-(Thiazol-2-Yl)-3,4-Dihydro-2H-Benzo[B][1,4]Oxazine-7-Sulfonamide 2,2,2-Trifluoroacetate]: 12600 nM, 2370 nM and over 10000 nM.
The matching figures for `Cc1cc(N2CCOc3cc(S(=O)(=O)Nc4nccs4)ccc32)ccc1Cl` [Example 156, 4-(4-Chloro-3-Methylphenyl)-N-(Thiazol-2-Yl)-3,4-Dihydro-2H-Benzo[B][1,4]Oxazine-7-Sulfonamide 2,2,2-Trifluoroacetate]: 2600 nM, 2280 nM and 3930 nM.
